Experimental data published in patent US20250353819A1, “ARYL HYDANTOIN COMPOUNDS AND METHODS OF USE” (priority 2022, published 2025).
Read-outs that look alike come from different tables or passages of the source.

What was measured:
CYP 1A2 = CYP 1A2 (Homo sapiens (Human), UniProt P05177); test: CYP inhibition in human liver microsomes, 1A2; type: in vitro ADME
[1] = Partition coefficient (Log D) by gradient HPLC; type: physicochemical; settings: pH 7.4, chromatographic estimate; read-out: gLogD7.4
Text: Partition Coefficient. Partition coefficient values (Log D) of the test compounds were estimated by correlation of their chromatographic retention properties against the characteristics of a series of standard compounds with known partition coefficient values using gradient HPLC (modification of a method reported by Lombardo et al., 2001).

[2] = Plasma protein binding (rapid equilibrium dialysis), human plasma; type: in vitro ADME
CYP 2D6 = CYP 2D6 (Homo sapiens (Human), UniProt P10635); test: CYP inhibition in human liver microsomes, 2D6
Chain of CYP 2D6 (P10635 whole entry): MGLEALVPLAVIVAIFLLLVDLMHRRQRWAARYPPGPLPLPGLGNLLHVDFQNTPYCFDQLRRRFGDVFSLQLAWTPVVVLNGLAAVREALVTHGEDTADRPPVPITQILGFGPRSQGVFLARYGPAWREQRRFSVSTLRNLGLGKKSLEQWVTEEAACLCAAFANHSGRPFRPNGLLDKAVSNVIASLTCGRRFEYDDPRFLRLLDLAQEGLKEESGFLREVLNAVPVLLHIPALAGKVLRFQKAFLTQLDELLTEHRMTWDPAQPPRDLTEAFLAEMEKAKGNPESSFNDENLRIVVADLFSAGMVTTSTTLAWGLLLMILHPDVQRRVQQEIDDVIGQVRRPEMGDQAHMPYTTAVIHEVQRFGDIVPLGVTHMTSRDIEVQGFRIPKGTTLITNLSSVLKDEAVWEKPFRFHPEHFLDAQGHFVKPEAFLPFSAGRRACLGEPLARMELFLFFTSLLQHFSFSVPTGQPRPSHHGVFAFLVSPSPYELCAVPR

LogD7.4 (shake flask) = settings: pH 7.4
[3] = Plasma protein binding, dog plasma; type: in vitro ADME; settings: read-out: % bound (converted)
[4] = Pharmacokinetics in male Sprague Dawley rats; type: in vivo, rat; settings: rats, mean (n = 3); for half-life: read-out: Apparent t1/2 (converted)
Description: IV and oral formulations were prepared using the same method. On the day of dosing the solid compound was dissolved in DMSO prior to addition of a saline solution (0.9% w/v). The samples were then mixed using vortexing producing colourless solutions. The IV formulation was filtered through a 0.22 μm syringe filter prior to dosing and the oral formulation was dosed without filtration.
Samples of arterial blood were collected up to 168 h post-dose. Urine samples were not collected as animals were housed in bedded cages. Arterial blood was collected directly into borosilicate vials (at 4° C.) containing heparin as anticoagulant. Once collected, blood samples were centrifuged, supernatant plasma was removed and stored frozen (−80° C.) until analysis by LC-MS. A summary of the bioanalytical method and assay validation details is included in Tables 14 and 15.
Plasma concentration versus time data were analysed using non-compartmental methods (PKSolver Version 2.0). Standard calculations for each pharmacokinetic parameter are listed below.

CYP 2C19 = CYP 2C19 (Homo sapiens (Human), UniProt P33261); test: CYP inhibition in human liver microsomes, 2C19; type: in vitro ADME
Chain of CYP 2C19 (P33261 whole entry): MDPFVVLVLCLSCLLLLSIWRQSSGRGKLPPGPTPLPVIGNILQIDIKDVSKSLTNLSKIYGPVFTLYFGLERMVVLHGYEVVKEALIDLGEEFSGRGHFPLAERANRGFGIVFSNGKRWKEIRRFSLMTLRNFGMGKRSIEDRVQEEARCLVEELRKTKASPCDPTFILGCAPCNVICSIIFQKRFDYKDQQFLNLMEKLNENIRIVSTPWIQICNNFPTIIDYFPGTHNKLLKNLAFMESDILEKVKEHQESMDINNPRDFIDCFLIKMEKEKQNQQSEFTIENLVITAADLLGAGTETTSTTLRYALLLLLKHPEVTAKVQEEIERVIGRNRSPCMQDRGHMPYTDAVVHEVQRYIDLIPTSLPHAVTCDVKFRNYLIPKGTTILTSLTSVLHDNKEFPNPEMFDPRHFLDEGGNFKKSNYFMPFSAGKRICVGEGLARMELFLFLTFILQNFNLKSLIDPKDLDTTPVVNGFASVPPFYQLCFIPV

CYP 3A4 = CYP 3A4 (Homo sapiens (Human), UniProt P08684); test: CYP inhibition in human liver microsomes, 3A4
Chain of CYP 3A4 (P08684 whole entry): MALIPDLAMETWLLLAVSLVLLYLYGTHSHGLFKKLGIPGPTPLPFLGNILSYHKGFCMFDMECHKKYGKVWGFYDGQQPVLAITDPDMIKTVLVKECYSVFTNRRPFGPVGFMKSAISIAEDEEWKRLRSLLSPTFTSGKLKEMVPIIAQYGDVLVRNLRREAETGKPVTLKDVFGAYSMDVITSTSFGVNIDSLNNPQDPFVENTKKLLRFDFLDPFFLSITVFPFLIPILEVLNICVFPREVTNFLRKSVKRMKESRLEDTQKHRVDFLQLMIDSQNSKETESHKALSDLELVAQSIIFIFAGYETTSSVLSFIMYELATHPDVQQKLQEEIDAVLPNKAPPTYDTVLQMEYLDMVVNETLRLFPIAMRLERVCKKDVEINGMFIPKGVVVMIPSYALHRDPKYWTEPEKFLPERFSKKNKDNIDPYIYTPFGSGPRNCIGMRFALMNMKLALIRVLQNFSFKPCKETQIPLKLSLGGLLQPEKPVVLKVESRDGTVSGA

[5] = Plasma protein binding, rat plasma; type: in vitro ADME; settings: read-out: % bound (converted)
S. mansoni = test: Antischistosomal screen in S. mansoni-infected mice; type: in vivo, Schistosoma mansoni; settings: Schistosoma mansoni, single oral dose, mouse model
Text: Antischistosomal Screen. […] As described by Lombardo et al. (2019), cercariae of S. mansoni were obtained from infected Biomphalaria glabrata. By way of example, NMRI mice were infected subcutaneously with approximately 100 S. mansoni cercariae. […] Untreated mice (n=8) served as controls. At 21 d post-treatment, animals were killed by the CO2 method and dissected. Worms were removed by picking, then sexed and counted.

[6] = Plasma protein binding, mouse plasma; type: in vitro ADME
LAPC4 cells = test: Androgen-dependent cell-based assay (DHT, LAPC4)
Description: Androgen-Dependent Cell-based Assay. As described by Jones and Diamond (2008), LAPC4 cells were cultured in phenol red free RPMI 1640 media supplemented with antibiotics and 10% FBS. […] […] Mean-effect plots (log[compound] vs. log[fractional effect]) were generated to determine the IC50 values for each test compound or combinations of test compounds at constant ratios.

CYP 2C9 = CYP 2C9 (Homo sapiens (Human), UniProt P11712); test: CYP inhibition in human liver microsomes, 2C9
Chain of CYP 2C9 (P11712 whole entry): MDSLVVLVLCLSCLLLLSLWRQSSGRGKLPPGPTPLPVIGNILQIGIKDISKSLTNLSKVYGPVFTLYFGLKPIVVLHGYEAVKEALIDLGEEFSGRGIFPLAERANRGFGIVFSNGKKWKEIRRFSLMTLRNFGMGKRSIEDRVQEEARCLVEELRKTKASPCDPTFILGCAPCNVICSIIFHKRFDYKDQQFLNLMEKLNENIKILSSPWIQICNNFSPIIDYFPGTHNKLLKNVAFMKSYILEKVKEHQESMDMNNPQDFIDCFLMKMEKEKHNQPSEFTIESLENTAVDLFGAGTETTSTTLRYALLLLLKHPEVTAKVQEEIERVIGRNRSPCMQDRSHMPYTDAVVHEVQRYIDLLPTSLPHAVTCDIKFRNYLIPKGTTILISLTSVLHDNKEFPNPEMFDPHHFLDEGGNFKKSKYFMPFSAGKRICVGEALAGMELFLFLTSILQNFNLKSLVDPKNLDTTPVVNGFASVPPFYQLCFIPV

Chain of CYP 1A2 (P05177 whole entry): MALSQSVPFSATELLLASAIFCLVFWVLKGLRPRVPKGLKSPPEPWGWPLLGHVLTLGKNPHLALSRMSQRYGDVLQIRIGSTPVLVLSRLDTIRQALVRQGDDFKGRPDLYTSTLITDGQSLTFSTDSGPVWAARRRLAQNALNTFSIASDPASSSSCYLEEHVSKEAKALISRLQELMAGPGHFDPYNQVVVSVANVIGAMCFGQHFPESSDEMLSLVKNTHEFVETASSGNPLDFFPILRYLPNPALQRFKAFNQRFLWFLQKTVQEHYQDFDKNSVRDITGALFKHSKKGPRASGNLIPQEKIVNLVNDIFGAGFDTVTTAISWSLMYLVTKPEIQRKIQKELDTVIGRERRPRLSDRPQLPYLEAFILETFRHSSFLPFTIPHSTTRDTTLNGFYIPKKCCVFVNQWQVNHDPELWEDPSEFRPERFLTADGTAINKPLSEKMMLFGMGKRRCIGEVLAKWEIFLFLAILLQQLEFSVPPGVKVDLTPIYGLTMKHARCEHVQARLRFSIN

For `[2H]C([2H])([2H])C1(C([2H])([2H])[2H])NC(=O)N(c2ccc(F)c(C(C)(F)F)c2)C1=O` [Compound IE, 3-(3-(1,1-difluoroethyl)-4-fluorophenyl)-5,5-bis(methyl-d3)imidazolidine-2,4-dione], the IC50 (CYP 1A2; 1A2, read-out: CYP inhibition IC50) was greater than 20 µM, the CYP inhibition (CYP 1A2; CYP 1A2, concentrations up to 20 μM, human liver microsomes) was “did not inhibit” and the chromatographic logD [1] was 2.5. The “% bound” value [2] was 63%, the fraction unbound ([2]; human, plasma, read-out: % bound (converted)) was 0.367 and the CYP inhibition (CYP 2D6; CYP 2D6, concentrations up to 20 μM, human liver microsomes) was “did not inhibit”. For the same compound, the IC50 (CYP 2D6; read-out: CYP inhibition IC50, 2D6) was greater than 20 µM, the “LogD7.4 (shake flask)” value (LogD7.4 (shake flask)) was 1.9 and the logD (LogD7.4 (shake flask)) was 1.9. The fraction unbound [3] was 0.32, the AUC ([4]; male, Sprague Dawley, rat, in vivo, iv, 0.9 mg/kg, IV 0.9 mg/kg, read-out: Plasma AUCIV) was 31700 ng·h/mL and the clearance ([4]; male, Sprague Dawley, rat, in vivo, iv, 0.9 mg/kg, IV 0.9 mg/kg, read-out: Plasma CL) was 0.476 mL/min/kg. It also gave a Cmax ([4]; male, Sprague Dawley, rat, in vivo, po, 0.9 mg/kg, PO 0.9 mg/kg, read-out: Plasma Cmax) of 440 ng/mL, a Tmax ([4]; male, Sprague Dawley, rat, in vivo, po, 0.9 mg/kg, PO 0.9 mg/kg, read-out: Tmax) of 11 h and a half-life ([4]; male, Sprague Dawley, rat, in vivo, IV 0.9 mg/kg) of 32 ± 2 h. The half-life ([4]; male, Sprague Dawley, rat, in vivo, PO 0.9 mg/kg) was 39 h, the “Apparent t1/2” value ([4]; IV 0.9 mg/kg) was 32 h and the PlasmaVSS ([4]; IV 0.9 mg/kg) was 1.69 L/kg. The BA ([4]; PO 0.9 mg/kg) was 113%, the “Plasma AUCoral” value ([4]; PO 0.9 mg/kg) was 36.0 H*ug/mL and the IC50 (CYP 2C19; 2C19, read-out: CYP inhibition IC50) was greater than 20 µM. The CYP inhibition (CYP 2C19; CYP 2C19, concentrations up to 20 μM, human liver microsomes) was “did not inhibit”, the CYP inhibition (CYP 3A4; CYP 3A4, concentrations up to 20 μM, human liver microsomes) was “did not inhibit” and the IC50 (CYP 3A4; read-out: CYP inhibition IC50, 3A4* (tes/mid)) was greater than 20 µM. The fraction unbound [5] was 0.42, the ED50 (S. mansoni; adult stage, read-out: S. mansoni ED50, adult) was 7.1 mg/kg and the ED50 (S. mansoni; juvenile stage, read-out: S. mansoni ED50, juvenile) was 16 mg/kg. For the same compound, the “% bound” value [6] was 54%, the fraction unbound ([6]; mouse, plasma, read-out: % bound (converted)) was 0.462 and the IC50 (LAPC4 cells; Homo sapiens, DHT-induced, androgen-dependent LAPC4 prostate cancer cell line, read-out: LAPC4 IC50) was greater than 100 µM. For the same compound, the “inhibition of DHT-induced cell proliferation” value (LAPC4 cells; concentrations up to 100 μM) was “did not inhibit”, the CYP inhibition (CYP 2C9; CYP 2C9, concentrations up to 20 μM, human liver microsomes) was “did not inhibit” and the IC50 (CYP 2C9; read-out: CYP inhibition IC50, 2C9) was greater than 20 µM.
